Measurements as given in PubChem BioAssay (NCI).
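In this assay, cells in 96-well plates receive the compound at five concentrations for 48 hours. Endpoints are linearly interpolated between the surrounding concentrations. At the TGI there is no net growth.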

Key:
Test in all cases: growth of human tumour cells (NCI), 48 h
HS 578T breast = test system: HS 578T breast
MDA-MB-231 breast = test system: MDA-MB-231 breast
M14 melanoma = test system: M14 melanoma
KM12 colon = test system: KM12 colon
SR leukemia = test system: SR leukemia
DMS 114 small cell lung = test system: DMS 114 small cell lung
SNB-75 CNS = test system: SNB-75 CNS
MDA-N = test system: MDA-N
SK-MEL-28 melanoma = test system: SK-MEL-28 melanoma
SN12C renal = test system: SN12C renal
HCT-116 colon = test system: HCT-116 colon
HOP-62 NSCLC = test system: HOP-62 NSCLC
SF-539 CNS = test system: SF-539 CNS
RXF 393 renal = test system: RXF 393 renal
MOLT-4 leukemia = test system: MOLT-4 leukemia
BT-549 breast = test system: BT-549 breast
SK-MEL-5 melanoma = test system: SK-MEL-5 melanoma
IGROV1 ovarian = test system: IGROV1 ovarian
OVCAR-4 ovarian = test system: OVCAR-4 ovarian
ACHN renal = test system: ACHN renal
HL-60(TB) leukemia = test system: HL-60(TB) leukemia
UACC-257 melanoma = test system: UACC-257 melanoma
SK-MEL-2 melanoma = test system: SK-MEL-2 melanoma
OVCAR-3 ovarian = test system: OVCAR-3 ovarian
NCI-H522 lung = test system: NCI-H522 lung
HCC-2998 colon = test system: HCC-2998 colon
MDA-MB-435 = test system: MDA-MB-435
RPMI-8226 leukemia = test system: RPMI-8226 leukemia
U251 CNS = test system: U251 CNS
OVCAR-5 ovarian = test system: OVCAR-5 ovarian
CCRF-CEM leukemia = test system: CCRF-CEM leukemia
T-47D breast = test system: T-47D breast
DMS 273 small cell lung = test system: DMS 273 small cell lung
NCI-H23 lung = test system: NCI-H23 lung
DU-145 prostate = test system: DU-145 prostate
DLD-1 colon = test system: DLD-1 colon
SNB-78 CNS = test system: SNB-78 CNS
TK-10 renal = test system: TK-10 renal
SNB-19 CNS = test system: SNB-19 CNS
LXFL 529 NSCLC = test system: LXFL 529 NSCLC
SF-295 CNS = test system: SF-295 CNS
COLO 205 colon = test system: COLO 205 colon
HCT-15 colon = test system: HCT-15 colon
MCF7 breast = test system: MCF7 breast
M19-MEL melanoma = test system: M19-MEL melanoma
HOP-92 NSCLC = test system: HOP-92 NSCLC
KM20L2 colon = test system: KM20L2 colon
OVCAR-8 ovarian = test system: OVCAR-8 ovarian
A549 NSCLC = test system: A549 NSCLC
RXF-631 renal = test system: RXF-631 renal
HOP-18 NSCLC = test system: HOP-18 NSCLC
CAKI-1 renal = test system: CAKI-1 renal
UO-31 renal = test system: UO-31 renal
NCI-H460 lung = test system: NCI-H460 lung
NCI/ADR-RES ovarian = test system: NCI/ADR-RES ovarian
XF 498 CNS = test system: XF 498 CNS
EKVX NSCLC = test system: EKVX NSCLC
786-0 renal = test system: 786-0 renal
SW-620 colon = test system: SW-620 colon
NCI-H226 lung = test system: NCI-H226 lung
SK-OV-3 ovarian = test system: SK-OV-3 ovarian
UACC-62 melanoma = test system: UACC-62 melanoma
MALME-3M melanoma = test system: MALME-3M melanoma
A498 renal = test system: A498 renal
K-562 leukemia = test system: K-562 leukemia
LOX IMVI melanoma = test system: LOX IMVI melanoma
PC-3 prostate = test system: PC-3 prostate
SF-268 CNS = test system: SF-268 CNS
HT29 colon = test system: HT29 colon

Q: CC1(C)CC(Nc2ccc(Nc3ccccc3)cc2)CC(C)(C)N1 was tested. Which TGI (HS 578T breast) did it give?
A: 48.8 µM

Q: What about the TGI (MDA-MB-231 breast) of the same compound?
A: 32.4 µM

Q: And the TGI (M14 melanoma)?
A: 34.7 µM

Q: And the TGI (KM12 colon)?
A: 71.2 µM

Q: What about the TGI (SR leukemia) of the same compound?
A: 50.2 µM

Q: What about the TGI (DMS 114 small cell lung) of the same compound?
A: 42.9 µM

Q: And the TGI (SNB-75 CNS)?
A: > 100 µM

Q: What about the TGI (MDA-N) of the same compound?
A: 32.7 µM

Q: What about the TGI (SK-MEL-28 melanoma) of the same compound?
A: 33.8 µM

Q: What about the TGI (SN12C renal) of the same compound?
A: 80.6 µM

Q: What about the TGI (HCT-116 colon) of the same compound?
A: 62.3 µM

Q: What about the TGI (HOP-62 NSCLC) of the same compound?
A: 77.3 µM

Q: And the TGI (SF-539 CNS)?
A: 41.9 µM

Q: What about the TGI (RXF 393 renal) of the same compound?
A: 47.5 µM

Q: What about the TGI (MOLT-4 leukemia) of the same compound?
A: 53.7 µM

Q: And the TGI (BT-549 breast)?
A: 27 µM

Q: And the TGI (SK-MEL-5 melanoma)?
A: 30.5 µM

Q: What about the TGI (IGROV1 ovarian) of the same compound?
A: 78.6 µM

Q: And the TGI (OVCAR-4 ovarian)?
A: 61.9 µM

Q: And the TGI (ACHN renal)?
A: 37.2 µM

Q: And the TGI (HL-60(TB) leukemia)?
A: 19.2 µM

Q: What about the TGI (UACC-257 melanoma) of the same compound?
A: 23.9 µM

Q: And the TGI (SK-MEL-2 melanoma)?
A: 52.9 µM

Q: And the TGI (OVCAR-3 ovarian)?
A: 41.8 µM

Q: What about the TGI (NCI-H522 lung) of the same compound?
A: 26.6 µM

Q: And the TGI (HCC-2998 colon)?
A: 32.7 µM

Q: And the TGI (MDA-MB-435)?
A: 33.6 µM

Q: And the TGI (RPMI-8226 leukemia)?
A: 37.3 µM

Q: And the TGI (U251 CNS)?
A: 40.1 µM

Q: What about the TGI (OVCAR-5 ovarian) of the same compound?
A: > 63.1 µM

Q: What about the TGI (CCRF-CEM leukemia) of the same compound?
A: 29.9 µM

Q: And the TGI (T-47D breast)?
A: 37.5 µM

Q: What about the TGI (DMS 273 small cell lung) of the same compound?
A: > 100 µM

Q: And the TGI (NCI-H23 lung)?
A: 63.7 µM

Q: What about the TGI (DU-145 prostate) of the same compound?
A: 61.1 µM

Q: What about the TGI (DLD-1 colon) of the same compound?
A: > 100 µM

Q: What about the TGI (SNB-78 CNS) of the same compound?
A: > 100 µM

Q: What about the TGI (TK-10 renal) of the same compound?
A: 48.5 µM

Q: What about the TGI (SNB-19 CNS) of the same compound?
A: > 80.7 µM

Q: What about the TGI (LXFL 529 NSCLC) of the same compound?
A: > 56.8 µM

Q: What about the TGI (SF-295 CNS) of the same compound?
A: > 95.3 µM

Q: What about the TGI (COLO 205 colon) of the same compound?
A: 32.5 µM

Q: What about the TGI (HCT-15 colon) of the same compound?
A: 70.4 µM

Q: And the TGI (MCF7 breast)?
A: 33.5 µM

Q: And the TGI (M19-MEL melanoma)?
A: > 94.2 µM

Q: And the TGI (HOP-92 NSCLC)?
A: 33.9 µM

Q: What about the TGI (KM20L2 colon) of the same compound?
A: > 78.6 µM

Q: And the TGI (OVCAR-8 ovarian)?
A: 66.3 µM

Q: And the TGI (A549 NSCLC)?
A: > 86.2 µM

Q: And the TGI (RXF-631 renal)?
A: > 31.6 µM

Q: What about the TGI (HOP-18 NSCLC) of the same compound?
A: > 100 µM

Q: What about the TGI (CAKI-1 renal) of the same compound?
A: 53.1 µM

Q: What about the TGI (UO-31 renal) of the same compound?
A: 24.6 µM

Q: And the TGI (NCI-H460 lung)?
A: 64 µM

Q: And the TGI (NCI/ADR-RES ovarian)?
A: 66.9 µM

Q: And the TGI (XF 498 CNS)?
A: > 54.2 µM

Q: What about the TGI (EKVX NSCLC) of the same compound?
A: 81.4 µM

Q: What about the TGI (786-0 renal) of the same compound?
A: 49.2 µM

Q: What about the TGI (SW-620 colon) of the same compound?
A: 49 µM

Q: What about the TGI (NCI-H226 lung) of the same compound?
A: 40.8 µM

Q: And the TGI (SK-OV-3 ovarian)?
A: > 100 µM

Q: What about the TGI (UACC-62 melanoma) of the same compound?
A: 28.1 µM

Q: And the TGI (MALME-3M melanoma)?
A: 35.8 µM

Q: What about the TGI (A498 renal) of the same compound?
A: 55.3 µM

Q: And the TGI (K-562 leukemia)?
A: 39.2 µM

Q: What about the TGI (LOX IMVI melanoma) of the same compound?
A: 43.1 µM

Q: What about the TGI (PC-3 prostate) of the same compound?
A: 32.3 µM

Q: What about the TGI (SF-268 CNS) of the same compound?
A: > 85.4 µM

Q: And the TGI (HT29 colon)?
A: 50.7 µM
